Experiments:
[1] = tested on: Pseudomonas aeruginosa strains (VIM-2, SPM-1, IMP-1, OXA-50, ATCC 27853, PA01); experiment: checkerboard MIC experiments, 5-NIdR combined with aztreonam/avibactam; format: cell-based
Protocol: 5-NIdR alone was not active, displaying individual MICs>512 μg/ml against these strains.

bacterial persisters = experiment: fluorescence and SEM of bacterial persisters treated with aztreonam/avibactam with or without 5-NIdR (FIG. 5); format: cell-based
From the text: First, the artificial nucleoside inhibits TLS activity in response to ROS generated by β-lactams, and this serves to enhance the cytotoxicity of this class of antibiotics. […] These two features represent a novel approach to attack drug-resistant bacteria.

O=[N+]([O-])c1ccc2c(ccn2[C@H]2C[C@H](O)[C@@H](CO)O2)c1 [5-NIdR, 5-nitro-indolyl-2′-deoxynucleoside]
activity of 5-NIdR alone ([1]; 5-NIdR alone, against these strains): not active
fold reduction in the MICs for aztreonam/avibactam ([1]; 5-NIdR combined with aztreonam/avibactam, 5-NIdR concentrations as low as 0.5 μg/ml, all strains listed): > 10 -fold
MIC ([1]; Pseudomonas aeruginosa, ATCC27853, read-out: minimal inhibitory concentrations (MICs)): > 512 µg/mL
lowest 5-NIdR concentration required to achieve a >10-fold reduction in the MICs for aztreonam/avibactam ([1]; combined with β-lactams (aztreonam/avibactam), all Pseudomonas aeruginosa strains listed): 0.5 μg/ml
cell-killing effects in checkerboard analysis ([1]; combining 5-NIdR with aztreonam/avibactam in drug-resistant bacteria (FIG. 3A-F)): synergistic cell-killing effects
inhibitory activity in checkerboard experiments ([1]; variable concentrations of 5-NIdR combined with variable concentrations of aztreonam/avibactam): excellent inhibitory activity
influence on formation of persisters induced by antibiotic treatment (bacterial persisters; 5-NIdR added to aztreonam/avibactam, panel d): does not appear to influence formation of persisters
viability of filamentous persisters (bacterial persisters; 5-NIdR combined with aztreonam/avibactam): adversely affects the viability of filamentous persisters
morphology of persisters (fluorescence and SEM) (bacterial persisters; 5-NIdR combined with aztreonam/avibactam, panels d, e): formation of “ghost” apoptotic saccules which represent non-viable persisters that do not undergo reversion

From patent US20260373183A1, “ANTIBIOTIC-RESISTANT ARTIFICIAL NUCLEOSIDE, COMPOSITION AND METHOD” (priority 2022, published 2026)
